Results on four molecules are retold here after patent publication US5229409A, “6-substituted-tetrahydrobenz[cd]indoles” (Eli Lilly and Company, priority 1991, dated 1993).

The target in one assay is T1, 5-HT1A receptor (Rattus norvegicus, UniProt P19327).
T1 construct: the brains were rapidly chilled and dissected to obtain the hippocampi; from tissue; host or cells: hippocampi of male Sprague-Dawley rats (150-250 g), washed membranes
T1 sequence (P19327 1-422): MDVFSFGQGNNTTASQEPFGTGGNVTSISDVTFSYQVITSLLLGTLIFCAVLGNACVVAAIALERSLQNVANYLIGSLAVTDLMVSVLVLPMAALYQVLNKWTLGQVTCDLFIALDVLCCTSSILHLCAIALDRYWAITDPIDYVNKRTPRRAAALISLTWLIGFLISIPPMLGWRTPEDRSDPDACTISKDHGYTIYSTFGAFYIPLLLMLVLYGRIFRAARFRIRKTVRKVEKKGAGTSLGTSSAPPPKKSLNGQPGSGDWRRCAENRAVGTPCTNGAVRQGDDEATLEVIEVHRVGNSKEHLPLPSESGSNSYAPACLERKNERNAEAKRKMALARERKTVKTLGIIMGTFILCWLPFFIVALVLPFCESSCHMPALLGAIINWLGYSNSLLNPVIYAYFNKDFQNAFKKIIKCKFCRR
The assay can be described thus: [3H]8-OH-DPAT binding to 5-HT1A sites in hippocampal membranes. Also on record: species or system rat (male Sprague-Dawley). Particulars: [3H]8-OH-DPAT 1.0 nM, pH 7.4, 37° C. Here is the method:
The affinities of the compounds at the central […] described by Taylor, et al., (J. Pharmacol. Exp. Ther. 236:118-125, 1986). Membranes for the binding assay were prepared from male Sprague-Dawley rats (150-250 g). The animals were killed by decapitation, and the brains were rapidly chilled and dissected to obtain the hippocampi. The hippocampi were either prepared that day or stored frozen (-70° C.) until the day of preparation. Membranes were prepared by homogenizing the tissue in 40 volumes of ice-cold Tris-HCl buffer (50 mM, pH 7.4 at 22° C.) using a Techmar Tissumizer (setting 65 for 15 sec), and the homogenate was centrifuged at 39800 xg for 10 min. The resulting pellet then resuspended in the same buffer, and the centrifugation and resuspension process was repeated three additional times to wash the membranes. Between the second and third washes the resuspended membranes were incubated for 10 min at 37° C. to facilitate the removal of endogenous ligands. The final pellet was resuspended in 67 mM Tris-HCl, pH 7.4, to a concentration of 2 mg of tissue original wet weight/200 μl. This homogenate was stored frozen (-70° C.) until the day of the binding assay. […] The assay tubes were incubated for 10 min at 37° C, and the contents were then rapidly filtered through GF/B filters (pretreated with 0.5% polyethylenimine), followed by four one-mL washes with ice cold buffer. The radioactivity trapped by the filters was quantitated by liquid scintillation spectrometry, and specific [^3 H]8-OH-DPAT binding to the 5-HT1A sites was defined as the difference between [^3 H]8-OH-DPAT bound in the presence and absence of 10 μM 5-HT.
The affinity of the particular compound at the 5-HT1A receptor is expressed as IC50 value, i.e., the concentration required to inhibit 50% of the binding. The IC50 values were determined from 12-point competition curves using nonlinear regression (SYSTAT, SYSTAT, INC., Evanston, Ill.).

In another assay the test system is serotonin. The experiment in a line: whole brain serotonin concentration in vivo in rats. Also on record: species or system rat (male albino). The following applies: 1 hour. The method, then: (§1) In another experiment certain compounds of the Examples were evaluated to determine ability to affect the 5-hydroxyindoles serotonin and 5-hydroxyindole acetic acid (5HIAA), and serum corticosterone, in vivo. Male albino rats were injected subcutaneously with an aqueous solution of the compound. The pH of the solution was adjusted as necessary to solubilize the compound. A control of the solution without the test compound was similarly injected into a control animal. The rats were decapitated one hour later. Trunk blood was collected and allowed to clot. After centrifugation, serum was stored frozen prior to analysis. The whole brain was removed and frozen on dry ice for storage prior to analysis. The serum corticosterone concentration was measured spectrofluorometrically using the procedure of Solem and Brinck-Johnson, "An Evaluation of a Method for Determination of Free Corticosteroids in Minute Quantities of Mouse Plasma", Scand. J. Clin. Lab. Invest., Suppl. 80, p. 1-14 (1965), incorporated herein by reference. 5-Hydroxyindoleacetic acid (5HIAA) concentration in whole brain was measured by liquid chromatography with electrochemical detection as reported by Fuller and Perry, "Effects of Buspirone and its Metabolite, 1-(2-pyrimidinyl)piperazine, on Brain Monoamines and Their Metabolites in Rats", J. Pharmacol. Exp. Ther., 248, p. 50-56 (1989), incorporated herein by reference.

The test system of the next assay is serum corticosterone. The assay can be described thus: serum corticosterone concentration in vivo in rats. Also on record: species or system rat (male albino). Particulars: 1 hour. The method, then:
as §1

The next assay deals with T2, 5-HT1D receptor (Bos taurus, UniProt F1MGM3).
T2 construct: the caudate nuclei were dissected out and frozen at -70° C; tissue Pel-Freeze Biologicals; host or cells: bovine caudate nuclei, washed membranes
The experiment in a line: [3H]5-HT binding to 5-HT1D sites in caudate nuclei membranes. Particulars: bovine caudate membranes, [3H]5-HT 1.7-1.9 nM, pH 7.4, 37° C. Here is the method: The affinities of the compounds at the central 5-HT1D binding sites were determined using a modification of the binding assay described by Heuring and Peroutka (J. Neurosci. 7:894-903, 1987). Bovine brains were obtained from Pel-Freeze Biologicals, and the caudate nuclei were dissected out and frozen at -70° C. until the time that the membranes were prepared for the binding assays. At that time the tissues were homogenized in 40 volumes of ice-cold Tris-HCl buffer (50 mM, pH 7.4 at 22° C.) with a Techmar Tissumizer (setting 65 for 15 sec), and the homogenate was centrifuged at 39,800 g for 10 min. The resulting pellet was then resuspended in the same buffer, and the centrifugation and resuspension process was repeated three additional times to wash the membranes. Between the second and third washes the resuspended membranes were incubated for 10 min at 37° C. to facilitate the removal of endogenous 5-HT. the final pellet was resuspended in Tris buffer to a concentration of 25 mg of original tissue wet weight/ml for use in the binding assay. […] The assay tubes were incubated for 10 min at 37° C., and the contents were then rapidly filtered through GF/B filters (pretreated with 0.5% polyethylenimine), followed by four one-mL washes with ice-cold buffer. The radioactivity trapped by the filters was quantitated by liquid scintillation spectrometry, and specific [^3 H]5-HT binding to the 5HT1D sites were defined as the difference between [^3 H]5-HT bound in the presence and absence of 10 μM 5-HT.
The affinities of compounds at the 5-HT1D receptor are expressed as IC50 values, i.e., the concentration required to inhibit 50% of the binding. These values were determined from 12-point competition curves using nonlinear regression (SYSTAT, SYSTAT, Inc. Evanston, Ill.).

[1] abbreviates: 0.0003 mg/kg s.c., series 0.0003-0.03 mg/kg.
[2] abbreviates: 0.003 mg/kg s.c., series 0.0003-0.03 mg/kg.
[3] abbreviates: 0.03 mg/kg s.c., series 0.0003-0.03 mg/kg.
The mark [4] stands for this setting: 0.03 mg/kg s.c., series 0.03-3 mg/kg.
The mark [5] stands for this setting: 0.3 mg/kg s.c., series 0.03-3 mg/kg.
Where [6] appears, read: 3 mg/kg s.c., series 0.03-3 mg/kg.

Molecules are shown by their SMILES.

T2 sequence (F1MGM3 1-403): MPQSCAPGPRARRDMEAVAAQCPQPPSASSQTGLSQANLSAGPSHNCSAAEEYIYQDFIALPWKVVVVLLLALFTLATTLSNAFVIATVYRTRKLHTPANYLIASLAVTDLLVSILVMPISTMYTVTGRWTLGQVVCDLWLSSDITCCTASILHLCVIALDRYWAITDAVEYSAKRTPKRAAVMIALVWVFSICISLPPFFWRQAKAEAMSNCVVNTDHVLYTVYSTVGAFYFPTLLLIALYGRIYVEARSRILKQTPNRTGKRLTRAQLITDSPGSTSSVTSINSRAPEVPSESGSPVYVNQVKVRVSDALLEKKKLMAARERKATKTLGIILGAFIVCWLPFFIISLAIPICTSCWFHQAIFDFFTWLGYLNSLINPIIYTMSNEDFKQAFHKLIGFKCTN

By IC50 is commonly meant the concentration needed to halve the response being measured. As for `CCCN(CCC)[C@H]1Cc2c[nH]c3ccc(C(=O)C(C)C)c(c23)C1` [Example 9, (4R)-(+)-6-(2-methylpropanoyl)-4-(di-n-propylamino)-1,3,4,5-tetrahydrobenz[cd]indole], the IC50 was determined as 160 pM at 5-HT1A receptor and 1270 pM on 5-HT1D receptor. Besides, the Serotonin with serotonin (setting [1]) turned out to be 2.76 ± 0.10 nmol/g; in the assay on serotonin (setting [2]), 2.94 ± 0.11 nmol/g; with serotonin (setting [3]) it was 3.08 ± 0.11 nmol/g; in the assay on serotonin (setting [4]), 2.56 ± 0.07 nmol/g; in the assay on serotonin (setting [5]), 2.94 ± 0.13 nmol/g; in the assay on serotonin (setting [6]), 2.65 ± 0.07 nmol/g. In addition, the “Serum Corticosterone” value turned out to be 4.1 ± 0.5 microg./100 ml with serum corticosterone (setting [1]); 6.0 ± 1.3 microg./100 ml in the assay on serum corticosterone (setting [2]); 9.1 ± 1.2 microg./100 ml in the assay with serum corticosterone (setting [3]); 7.7 ± 1.8 microg./100 ml in the assay with serum corticosterone (setting [4]); 40.8 ± 2.0 microg./100 ml in the assay with serum corticosterone (setting [5]); 30.8 ± 4.5 microg./100 ml in the assay on serum corticosterone (setting [6]).

As to `CCCN(CCC)[C@H]1Cc2c[nH]c3ccc(C(C)=O)c(c23)C1` [Example 7, (4R)-(+)-6-acetyl-4-(di-n-propylamino)-1,3,4,5-tetrahydrobenz[cd]indole], the IC50 amounted to 220 pM on 5-HT1A receptor and 7460 pM on 5-HT1D receptor. The Serotonin with serotonin (setting [1]) was determined as 2.68 ± 0.11 nmol/g; in the assay with serotonin (setting [2]) it was 2.74 ± 0.07 nmol/g; in the assay on serotonin (setting [3]) it was 3.00 ± 0.10 nmol/g; in the assay on serotonin (setting [4]), 2.47 ± 0.07 nmol/g; in the assay on serotonin (setting [5]), 2.59 ± 0.14 nmol/g. The “Serum Corticosterone” value in the assay with serum corticosterone (setting [1]) amounted to 4.1 ± 0.6 microg./100 ml; in the assay on serum corticosterone (setting [2]), 3.6 ± 0.1 microg./100 ml; in the assay on serum corticosterone (setting [3]), 21.8 ± 2.1 microg./100 ml; in the assay on serum corticosterone (setting [4]), 41.8 ± 1.7 microg./100 ml; in the assay on serum corticosterone (setting [5]) it was 41.5 ± 5.3 microg./100 ml.

Turning to `CCCN(CCC)C1Cc2c[nH]c3ccc(C(C)=O)c(c23)C1` (racemic) [Example 2, (±)-6-Acetyl-4-(di-n-propylamino)-1,3,4,5-tetrahydrobenz[cd]indole], the IC50 at 5-HT1A receptor worked out at 200 pM; on 5-HT1D receptor, 18400 pM. Besides, the Serotonin amounted to 2.71 ± 0.06 nmol/g in the assay with serotonin (setting [1]); 2.64 ± 0.11 nmol/g in the assay with serotonin (setting [2]); 3.23 ± 0.11 nmol/g in the assay on serotonin (setting [3]); 2.60 ± 0.09 nmol/g in the assay with serotonin (setting [4]); 2.54 ± 0.14 nmol/g in the assay with serotonin (setting [5]); 3.25 ± 0.01 nmol/g with serotonin (setting [6]). Moreover, the “Serum Corticosterone” value in the assay with serum corticosterone (setting [1]) worked out at 3.8 ± 0.5 microg./100 ml; in the assay on serum corticosterone (setting [2]), 3.6 ± 0.1 microg./100 ml; with serum corticosterone (setting [3]), 36.7 ± 1.2 microg./100 ml; with serum corticosterone (setting [4]), 33.4 ± 3.7 microg./100 ml; with serum corticosterone (setting [5]), 39.1 ± 1.1 microg./100 ml; in the assay on serum corticosterone (setting [6]), 13.8 ± 0.6 microg./100 ml.

As to `CCCN(CCC)[C@@H]1Cc2c[nH]c3ccc(C(C)=O)c(c23)C1` [Example 8, (4S)-(-)-6-acetyl-4-(di-n-propylamino)-1,3,4,5-tetrahydrobenz[cd]indole], the values for the IC50 at 5-HT1A receptor and on 5-HT1D receptor were 120 pM and 96400 pM, respectively. In addition, the Serotonin was found to be 2.91 ± 0.12 nmol/g in the assay on serotonin (setting [1]); 2.65 ± 0.13 nmol/g in the assay on serotonin (setting [2]); 3.30 ± 0.09 nmol/g in the assay with serotonin (setting [3]); 2.58 ± 0.15 nmol/g in the assay with serotonin (setting [4]); 2.78 ± 0.13 nmol/g with serotonin (setting [5]); 2.63 ± 0.12 nmol/g with serotonin (setting [6]). For the same molecule, the “Serum Corticosterone” value with serum corticosterone (setting [1]) is reported as 3.4 ± 0.2 microg./100 ml; in the assay with serum corticosterone (setting [2]), 3.8 ± 0.2 microg./100 ml; in the assay with serum corticosterone (setting [3]) it was 40.3 ± 1.8 microg./100 ml; with serum corticosterone (setting [4]), 47.0 ± 2.4 microg./100 ml; in the assay on serum corticosterone (setting [5]), 47.3 ± 2.3 microg./100 ml; in the assay on serum corticosterone (setting [6]), 45.4 ± 1.3 microg./100 ml.
